# Marks after values point to notes of the source that are not given here.
# What was measured:
# Format in all cases: in vivo, mouse
# [1] = test system: APOE*3Leiden mice; experiment: Plasma lipids in high-fat diet fed APOE*3Leiden mice
# Procedure: The APOE*3Leiden mouse expresses a variant of the human apolipoprotein E3 (APOE3), the APOE*3Leiden, in addition to the human apolipoprotein C1 (APOC1).
# Studies were performed in APOE*3Leiden mice (13-15 weeks old) placed on a semi-synthetic high fat diet (24% fat w/w) with 0.25% cholesterol w/w. After a 4-week run-in period, mice were sub-divided into groups of 5 mice each and administration of Compound A, Compound B, or vehicle alone was started. Both Compound B and Compound A were administered at a dose of 0.3 mmol/kg bw/day via diet. Sunflower oil (10 ml v/w) was used as a vehicle to facilitate mixing. After 4 weeks of treatment mice were sacrificed by C02 asphyxiation and plasma cholesterol and triglycerides were measured using commercially available kits (Roche*/Hitachi©).
# In a further study, performed as described above, the effects of Compound A, Compound B, and Compound C were compared with the effects of Reference Compound 1 ((Z)-3-(pent-2-en-1-yloxy)benzoic acid) and Reference Compound 2 ((Z)-4-(pent-2-en-1-yloxy)benzoic acid) on triglyceride levels. […] The results of this study are described in Example 17.
# [2] = Relative bodyweight in ob/ob AMLN mice; conditions: 0.3 mmol/kg bw day, 4 weeks treatment, FIG. 11
# Procedure: (§1) ob/ob mice are consistently fibrosis (liver) prone when cholesterol (2%) and 40% fat (containing 18% trans-fatty acids) and 20% fructose are added to a high-caloric diet (i.e., AMLN diet). ob/ob mice on AMLN diet (termed ‘ob/ob AMLN mice’) develop steatohepatitis and fibrosis within a shorter timeframe (<12 weeks) compared with wild-type C57BL/6 mice (AMLN mice) fed the same diet. ob/ob AMLN mice provide an obese diet-induced model of NASH that also allows the study of effects on glycemic control.
# (§2) Thirty male ob/ob mice (5 weeks old) were fed the AMLN diet for 15 weeks then randomised into 3 groups of 10 mice/group to receive Compound B or Compound A (both at 0.3 mmol/kg bw day) or no treatment (vehicle) for a further 4 weeks. Assessment of the hepatic expression of key genes regulating plasma lipid concentrations (LDLr), hepatic fibrosis (collA1), bile acid transport/re-uptake (Slc51b and Slc10a2) and inflammation (CD68) was made via RNA sequencing at 4 weeks. To assess the effects of Compound B and Compound A on glycemic control, an oral glucose tolerance test (OGTT) was also performed at 3 weeks. An additional group of mice (n=5) were also treated with a PPAR-γ agonist (pioglitazone, 30 mg/kg bw day) was also included to compare effects upon bodyweight.
# [3] = test system: hepatic expression of key genes; experiment: Hepatic target gene expression via RNA sequencing in ob/ob AMLN mice; conditions: 0.3 mmol/kg bw day, 4 weeks treatment
# Procedure: as §1, §2
# [4] = test system: C57BL/6 mice; experiment: Hepatic steatosis in oral PN diet fed C57BL/6 mice, initial experiment (Oil Red O); conditions: 19 days, 0.3 mmol/kg bw day in MCT by orogastric gavage
# Excerpt: Male C57BL/6 mice, 6 to 8 weeks old at initiation of the experiments, were used for all experimental groups. Mice were fed either an ad libitum diet of standard rodent chow (calorie composition: 26% protein, 14% fat, 60% carbohydrates) and water or a parenteral nutrition (PN) solution that mimics the PN diet used in neonatal intensive care units. The PN solution was a fat-free, high-carbohydrate liquid diet (20% dextrose, 2% essential and nonessential amino acids, 0.2% pediatric trace elements, 0.5% pediatric multivitamins, 30 mEq of sodium, 20 mEq of potassium, 15 mEq of calcium (as calcium gluconate), 10 mEq of magnesium, 10 mEq of phosphate, 5 mEq of acetate, and 30 mEq of chloride per liter) administered as a single 50 mL bottle per cage which mice consumed ad libitum. […] Prince et al., JPEN J Parenter Enteral Nutr., 2014; 38(5): 608-616.
# In the initial experiment, only Compound A was tested. The results of this experiment are described in Example 14.
# Male C57BL/6 mice, 6 weeks old at initiation of experiments, were divided into three groups (10 mice per group). One group was fed an ad libitum diet of standard rodent chow and water. The group fed standard rodent chow received no additional treatments during the experimental period and served as a negative control group. The two other groups were fed the above-described PN diet. […]
# [5] = test system: C57BL/6 mice; experiment: Hepatic steatosis in PN-fed C57BL/6 mice intravenously administered saline, Intralipid or Omegaven
# Procedure: Male C57BL/6 mice, 6 to 8 weeks old at initiation of the experiments, were used for all experiments. One group was fed an ad libitum diet of standard rodent chow and water. Six other groups (10 mice per group) were fed a parenteral nutrition (PN) solution ab libitum as described above.
# The PN-fed groups received tail vein injections every other day of saline, Omegaven® dosed at 2.4 g/kg/day, or Intralipid® (commercial soybean oil lipid emulsion) dosed at 2.4 g/kg/day and were treated with orogastric gavage administration (every other day) of either MCT or Compound A dosed at 0.6 mmol/kg bw. Intravenous saline was isovolumetric to Intralipid® groups. MCT orogastric gavage was isovolumetric to Compound A treatment (200 μl). The 6 experimental PN diet groups are listed below: • (1) Saline (intravenous)+PN+MCT (gavage) • (2) Intralipid® (intravenous)+PN+MCT (gavage) • (3) Omegaven® (intravenous)+PN+MCT (gavage) • (4) Saline (intravenous)+PN+Compound A (gavage) • (5) Intralipid® (intravenous)+PN+Compound A (gavage) • (6) Omegaven® (intravenous)+PN+Compound A (gavage)
# [6] = high-fat high-cholesterol diet, 4 weeks treatment
# [7] = high-fat high-cholesterol diet, 4 weeks treatment, dose 0.1 mmol/kg bw/day
# [8] = PN diet, 19 days, 0.6 mmol/kg bw by gavage, FIGS. 20-21
smiles,measurement,setting,value
"CCCCCOc1cccc(C(=O)O)c1C [Compound A, 2-methyl-3-(pentyloxy)benzoic acid]",triglyceride levels over 4 weeks,"[1]; further study with reference compounds, 0.3 mmol/kg bw/day, FIG. 31",significantly reduced
same,plasma TG versus vehicle,[1]; [6],significantly reduce
same,total plasma cholesterol versus vehicle,[1]; [6],significantly reduce
same,Reduction in plasma TG vs control (%),[1]; [7],79*** %
same,Reduction in plasma cholesterol vs control (%),[1]; [7],30*** %
same,relative bodyweight versus vehicle,[2],significantly decreased
same,hepatic expression of Coll al (collagen1a1) versus vehicle,[3]; FIG. 5,significantly reduce
same,hepatic expression of Slc10a2 versus vehicle,[3]; FIG. 6,significantly decreases
same,hepatic expression of Slc51b versus vehicle,[3]; FIG. 7,significantly decreases
same,hepatic expression of ABCC2 versus vehicle,[3]; FIG. 8,significantly increases
same,hepatic expression of CYP7A1,[3]; FIG. 9,reduces
same,hepatic expression of CD68 versus vehicle,[3]; FIG. 10,significantly decreases
same,expression of hepatic LDLr versus vehicle,[3]; FIG. 12,significantly increase
same,development of steatosis induced by an oral PN diet (Red Oil O stain in isolated liver sections),[4]; FIG. 13,prevented the development of steatosis
same,liver architecture,[4]; oral PN diet,Normal liver architecture
same,development of steatosis induced by an oral PN diet (H&E stain in isolated liver sections),"[5]; PN diet with intravenous saline, Intralipid or Omegaven, 0.6 mmol/kg bw by gavage every other day, FIGS. 22-25",prevented the development of steatosis
same,development of steatosis (Oil Red O stain in isolated liver sections),"[5]; PN diet with intravenous saline, Intralipid or Omegaven, 0.6 mmol/kg bw by gavage every other day, FIGS. 26-29",prevented the development of steatosis
same,quantification of lipid accumulation (Oil Red O) as compared with the chow-fed control,"[5]; PN diet with intravenous saline, Intralipid or Omegaven, 0.6 mmol/kg bw by gavage, FIG. 30",prevented the development of steatosis
same,normalized body mass vs any other experimental group,[5]; [8],not significantly different
same,normalized kidney mass vs any other experimental group,[5]; [8],not significantly different
same,normalized liver mass vs any other experimental group,[5]; [8],not significantly different
same,normalized spleen mass vs any other experimental group,[5]; [8],not significantly different
